In patent US8653263B2 (Janssen Pharmaceutica, priority 2009, dated 2014):

The molecules below were run against human orexin-2 receptor (Homo sapiens (Human), UniProt O43614) (assay: Human orexin 2 receptor radioligand binding ([3H]-EMPA competition)). Details: HEK293 cells stably expressing human orexin-2 receptor; [3H]-EMPA 5 nM final; apparent Ki=IC50/(1+C/Kd), Kd=2 nM; read-out: OR 2 Ki.
human orexin-2 receptor, sequence (O43614 whole entry): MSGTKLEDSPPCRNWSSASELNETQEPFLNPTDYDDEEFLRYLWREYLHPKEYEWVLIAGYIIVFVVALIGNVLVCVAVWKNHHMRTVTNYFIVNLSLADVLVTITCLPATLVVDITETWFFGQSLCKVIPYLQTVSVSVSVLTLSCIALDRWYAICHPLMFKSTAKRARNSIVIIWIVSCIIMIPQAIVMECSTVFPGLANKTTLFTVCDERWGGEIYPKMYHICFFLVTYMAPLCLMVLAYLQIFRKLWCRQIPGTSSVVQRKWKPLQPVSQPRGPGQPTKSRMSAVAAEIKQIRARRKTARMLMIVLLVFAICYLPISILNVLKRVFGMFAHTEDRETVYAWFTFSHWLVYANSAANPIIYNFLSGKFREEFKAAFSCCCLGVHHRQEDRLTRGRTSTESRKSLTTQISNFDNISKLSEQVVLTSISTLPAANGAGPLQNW

Row | Ki | SMILES
1 | 42 nM | CCc1c(C)nc(N2CC3CN(C(=O)c4ncccc4-n4nccn4)CC3C2)nc1C (stereo not shown) [Example 385, 2-(5-Ethyl-4,6-dimethylpyrimidin-2-yl)-5-{[3-(2H-1,2,3-triazol-2-yl)pyridin-2-yl]carbonyl}octahydropyrrolo[3,4-c]pyrrole]
2 | 940 nM | Cc1cc(C)nc(N2CC3CN(C(=O)c4ncccc4-c4nc(C)no4)CC3C2)n1 (stereo not shown) [Example 386, 2-(4,6-Dimethylpyrimidin-2-yl)-5-{[3-(3-methyl-1,2,4-oxadiazol-5-yl)pyridin-2-yl]carbonyl}octahydropyrrolo[3,4-c]pyrrole]
3 | 16 nM | O=C(c1cccc(F)c1-c1ncccn1)N1CC2CN(c3cnc4cc(F)c(F)cc4n3)CC2C1 (stereo not shown) [Example 387, (5-(6,7-Difluoroquinoxalin-2-yl)hexahydropyrrolo[3,4-c]pyrrol-2(1H)-yl)(3-fluoro-2-(pyrimidin-2-yl)phenyl)methanone]
4 | 30 nM | COc1ccc(C(=O)N2CC3CN(c4ncc5cc(F)ccc5n4)CC3C2)c(-n2nccn2)c1 (stereo not shown) [Example 388]
5 | 22 nM | COc1ccc(C(=O)N2CC3CN(c4cnc5cc(F)c(F)cc5n4)CC3C2)c(-n2nccn2)c1 (stereo not shown) [Example 389, (5-(6,7-Difluoroquinoxalin-2-yl)hexahydropyrrolo[3,4-c]pyrrol-2(1H)-yl)(4-methoxy-2-(2H-1,2,3-triazol-2-yl)phenyl)methanone]
6 | 190 nM | COc1ccc(C(=O)N2CC3CN(c4cc(N(C)C)ncn4)CC3C2)c(-n2nccn2)c1 (stereo not shown) [Example 390, (5-(6-(Dimethylamino)pyrimidin-4-yl)hexahydropyrrolo[3,4-c]pyrrol-2(1H)-yl)(4-methoxy-2-(2H-1,2,3-triazol-2-yl)phenyl)methanone]
7 | 28 nM | COc1ccc(C(=O)N2CC3CN(c4cc(N(C)C)nc(C)n4)CC3C2)c(-n2nccn2)c1 (stereo not shown) [Example 391, (5-(6-(Dimethylamino)-2-methylpyrimidin-4-yl)hexahydropyrrolo[3,4-c]pyrrol-2(1H)-yl)(4-methoxy-2-(2H-1,2,3-triazol-2-yl)phenyl)methanone]
8 | 570 nM | Cc1cccc(-c2ccc(F)cc2C(=O)N2CC3CN(c4nc(C)cc(C)n4)CC3C2)n1 (stereo not shown) [Example 399, (5-(4,6-Dimethylpyrimidin-2-yl)hexahydropyrrolo[3,4-c]pyrrol-2(1H)-yl)(5-fluoro-2-(6-methylpyridin-2-yl)phenyl)methanone]
9 | 510 nM | Cc1ccnc(-c2ccc(F)cc2C(=O)N2CC3CN(c4nc(C)cc(C)n4)CC3C2)c1 (stereo not shown) [Example 400, (5-(4,6-Dimethylpyrimidin-2-yl)hexahydropyrrolo[3,4-c]pyrrol-2(1H)-yl)(5-fluoro-2-(4-methylpyridin-2-yl)phenyl)methanone]
10 | 830 nM | Cc1ccc(-c2ccc(F)cc2C(=O)N2CC3CN(c4nc(C)cc(C)n4)CC3C2)nc1 (stereo not shown) [Example 401, (5-(4,6-Dimethylpyrimidin-2-yl)hexahydropyrrolo[3,4-c]pyrrol-2(1H)-yl)(5-fluoro-2-(5-methylpyridin-2-yl)phenyl)methanone]
11 | 120 nM | Cc1cc(C)nc(N2CC3CN(C(=O)c4cc(F)ccc4-c4ncccc4F)CC3C2)n1 (stereo not shown) [Example 402, (5-(4,6-Dimethylpyrimidin-2-yl)hexahydropyrrolo[3,4-c]pyrrol-2(1H)-yl)(5-fluoro-2-(3-fluoropyridin-2-yl)phenyl)methanone]
12 | 180 nM | Cc1cc(C)nc(N2CC3CN(C(=O)c4cc(F)ccc4-c4ccccn4)CC3C2)n1 (stereo not shown) [Example 403, (5-(4,6-Dimethylpyrimidin-2-yl)hexahydropyrrolo[3,4-c]pyrrol-2(1H)-yl)(5-fluoro-2-(pyridin-2-yl)phenyl)methanone]
13 | 19 nM | Cc1cc(C)nc(N2CC3CN(C(=O)c4cc(F)ccc4-c4ncco4)CC3C2)n1 (stereo not shown) [Example 404, (5-(4,6-Dimethylpyrimidin-2-yl)hexahydropyrrolo[3,4-c]pyrrol-2(1H)-yl)(5-fluoro-2-(oxazol-2-yl)phenyl)methanone]
